Test results as given in article PMC9369311, “Examination of Intracellular GPCR-Mediated Signaling with High Temporal Resolution” (International Journal of Molecular Sciences, 2022).
Values joined by “and” are separate entries in the source; they are usually repeats but may differ in a detail not shown here. Equal entries are not always repeated. Where two headings read alike, the source gives them in different places.

Target: T1, DmOctβ1 receptor (Drosophila melanogaster, UniProt Q9VCZ3)
T1 construct: expressed in transfected cells; host or cells: flpTM cells (HEK293 flpIn, Invitrogen #750-07, carrying the CNGA2 variant)
T1 sequence (Q9VCZ3 1-508): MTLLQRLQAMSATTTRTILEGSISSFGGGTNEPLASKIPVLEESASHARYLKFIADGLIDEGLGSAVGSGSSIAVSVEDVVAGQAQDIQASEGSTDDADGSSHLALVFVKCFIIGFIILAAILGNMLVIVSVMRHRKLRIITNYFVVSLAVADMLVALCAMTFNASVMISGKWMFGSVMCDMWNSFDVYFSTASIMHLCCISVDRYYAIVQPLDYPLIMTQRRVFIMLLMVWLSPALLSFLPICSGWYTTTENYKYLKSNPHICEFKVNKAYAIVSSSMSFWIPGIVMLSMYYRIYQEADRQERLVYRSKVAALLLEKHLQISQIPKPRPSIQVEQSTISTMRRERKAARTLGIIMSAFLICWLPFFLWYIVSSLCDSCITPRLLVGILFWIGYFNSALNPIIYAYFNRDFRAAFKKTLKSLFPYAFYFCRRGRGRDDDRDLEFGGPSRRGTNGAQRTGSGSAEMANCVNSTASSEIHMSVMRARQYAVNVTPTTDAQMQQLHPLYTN
Test: Ca2+ fluorimetry in plate reader (96 MWP), flpTM-DmOctβ1 cells (cAMP-mediated Ca2+ influx via CNGA2)
Assay type: cell-based
Experimental: Both the DmOctα1B receptor- and DmOctβ1 receptor-expressing (=flpTM-DmOctβ1) cell lines were initially investigated via Ca^2+ fluorimetric measurements in a plate reader. The cells were seeded in 96 well plates and loaded with Fluo-4, enabling the detection of changes in [Ca^2+]i. The Fluo-4 was excited at 485 nm and the fluorescence emission was recorded at 510 nm. To overcome the cAMP degradation by cell-endogenous phosphodiesterases, the DmOctβ1-expressing cells were treated with 100 µM iso-butylmethylxanthine (IBMX). Prior to the ligand application, the basal fluorescence (F0) was recorded and the concentration–response curves were generated by plotting the changes in fluorescence ((Fmax − F0)/F0 = ΔF/F0) against the ligand concentrations. For a better comparison, the fluorescence intensities were normalized. The maximal change in fluorescence for each of the stimulation series was defined as 100%. The EC50 values were determined from a nonlinear regression plot (four parameters) using GraphPad Prism v5.04 for analysis and display.
In order to omit loading with the fluorescent dye, both the DmOctα1B-expressing cells and flpTM-DmOctβ1 cells were stably transfected with a construct encoding the cytosolic version of GCaMP3.0. As in the previous experiment with Fluo-4, the GCaMP3.0-expressing cell lines were seeded in 96 well plates and incubated with the same series of increasing octopamine concentrations. The GCaMP3.0 was excited at 485 nm and the fluorescence emission was recorded at 510 nm. The basal fluorescence (F0) was recorded before adding the octopamine concentration series. The fluorescence intensities were normalized to the maximal change in fluorescence, defined as 100%. The concentration–response curves were generated with GraphPad Prism v5.04. In Figure 1, the concentration–response curves obtained with Fluo-4 and GCaMP3.0 are depicted for both of the receptors. […]

EC50 (flpTM-DmOctβ1-GCaMP3.0 cells, 100 µM IBMX, given as logEC50 (negative), read-out: logEC50 ± SD (converted)): 437 pM
EC50 (flpTM-DmOctβ1-GCaMP3.0 cells, 100 µM IBMX, read-out: EC50): 400 pM
EC50 (flpTM-DmOctβ1 cells loaded with Fluo-4, 100 µM IBMX, read-out: EC50): ~1200 pM and 1200 pM
SMILES: NCC(O)c1ccc(O)cc1 (stereo not drawn) [octopamine]
